The results in this text go back to patent US20240018140A1, “MODIFIED IMIDAZOPYRIDINES AS GLUCOSYLCERAMIDE SYNTHASE INHIBITORS” (Merck Sharp & Dohme LLC, priority 2020, published 2024).

For orientation: pEC50 means −log10 of the EC50, conventionally taken in molar units. Higher therefore signals a low EC50.

Each structure is given as a SMILES string. pEC50: −log10 of the molar value.

The target of the experiment is glucosylceramide synthase (GCS) (Homo sapiens (Human), UniProt Q16739). In words: UDP-Glo glucosylceramide synthase biochemical assay. To be noted: endogenous GCS in Golgi preparations from human A375 malignant melanoma skin cells; C6 ceramide and UDP-glucose substrates; 20 h incubation; UDP detected by luminescence. From the text: UDP-Glo™ Glucosylceramide Synthase Biochemical Assay
glucosylceramide synthase (GCS), sequence (Q16739 whole entry): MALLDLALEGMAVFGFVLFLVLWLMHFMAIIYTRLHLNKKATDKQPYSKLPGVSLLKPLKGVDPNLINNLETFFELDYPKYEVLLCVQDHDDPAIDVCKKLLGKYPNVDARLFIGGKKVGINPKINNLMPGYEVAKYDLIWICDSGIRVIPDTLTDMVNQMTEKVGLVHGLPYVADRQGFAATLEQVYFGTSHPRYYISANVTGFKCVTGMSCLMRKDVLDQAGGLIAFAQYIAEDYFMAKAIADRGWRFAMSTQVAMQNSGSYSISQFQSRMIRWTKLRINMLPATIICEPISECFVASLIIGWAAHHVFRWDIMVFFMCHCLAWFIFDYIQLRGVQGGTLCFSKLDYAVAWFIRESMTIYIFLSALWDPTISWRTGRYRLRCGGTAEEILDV
A UDP-Glo™ glucosylceramide synthase biochemical assay was utilized to evaluate the effect of test compounds on the activity of endogenous levels of GCS enzyme contained within Golgi preparations isolated from human A375 malignant melanoma skin cells. The UDP-Glo™ glucosylceramide synthase assay uses UDP-Glucose as a nucleotide-glycosyl donor and ceramide as substrate acceptor molecules. In the reaction, glucosylceramide synthase (GCS) transfers glucose from UDP-Glucose to ceramide. Glucosylceramide and UDP are released as products.
Using Promega's UDP-Glo™ Glycosyltransferase assay kit (Promega Corporation, Madison, WI, USA (Promega)), GCS activity was indirectly measured by detecting the amount of UDP produced. An aliquot of GCS enzyme (1.5 μg crude golgi preparation, total protein) and titrated test compound were aliquoted to each well and incubated for 30 minutes at room temperature. […] An equivalent volume of substrate mixture was then added to each well. Following a 20 h incubation at room temperature to allow for GCS turnover of substrate, an equal volume of UDP detection reagent (Promega) was added to each well and incubated for an additional 75 minutes at room temperature to simultaneously convert the accumulated UDP product into ATP and generate light in a luciferase reaction. The generated light was detected using a luminometer. […] luminescence values (RLUs) were normalized to mean “min” and “max” effects, as determined on each plate. “Min” was defined as the mean of the values of the wells treated with vehicle (DMSO) and which represent 0% inhibition; “max” was defined as the mean of the values of the wells treated with a reference inhibitor and which represent the 100% effect. Values for % Emax and EC50 were determined by best-fitting the normalized data to a curve in Activity Base along a four-parameter logistic nonlinear regression (4PL) model (based on the Levenberg-Marquardt algorithm and defined by the equation below): […]
where: n is 4PMin (bottom of the curve); m is 4PMax (top of the curve); i is IP (inflection point of curve); and p is slope. See Levenberg, K., “A Method for the Solution of Certain Problems in Least Squares”, Quart. Appl. Math. 2, (1944), pp 164-168 and Marquardt, D., “An Algorithm for Least Squares Estimation on Nonlinear Parameters”, SIAM J. Appl. Math. 11, (1963) pp 431-441.
The compound `O=C(N[C@H]1CC[C@H](O)C[C@H]1F)c1cn2cc(Cl)cc(-c3ccccc3OCC(F)(F)F)c2n1` (mixture of isomers) [Compound 22, 6-chloro-N-((1S,2R,4S and 1R, 2S,4R)-2-fluoro-4-hydroxycyclohexyl)-8-(2-(2,2,2-trifluoroethoxy)phenyl)imidazo[1,2-a]pyridine-2-carboxamide] had a pEC50 of 9.14. `CC1(NC(=O)c2cn3cc(Cl)cc(-c4ccccc4OCC(F)(F)F)c3n2)CCOC1` (racemic) [Compound 14, (R and S)-6-chloro-N-(3-methyltetrahydrofuran-3-yl)-8-(2-(2,2,2-trifluoroethoxy)phenyl)imidazo[1,2-a]pyridine-2-carboxamide] gave a pEC50 of 9.01. The value for `O=C(NC1CNCCC1(F)F)c1cn2cccc(-c3ccccc3OCC(F)(F)F)c2n1` (racemic) [Compound 17, (R and S)-N-(4,4-difluoropiperidin-3-yl)-8-(2-(2,2,2-trifluoroethoxy)phenyl)imidazo[1,2-a]pyridine-2-carboxamide] was 8.92; that for `CC1(NC(=O)c2cn3cc(Cl)cc(-c4ccccc4OCC(F)(F)F)c3n2)CCCOC1` (racemic) [Compound 35, (R and S)-6-chloro-N-(3-methyltetrahydro-2H-pyran-3-yl)-8-(2-(2,2,2-trifluoroethoxy)phenyl)imidazo[1,2-a]pyridine-2-carboxamide] was 8.48. The value for `O=C(NC(c1cccnc1)C(F)(F)F)c1cn2cccc(-c3ccccc3OCC(F)(F)F)c2n1` (racemic) [Compound 38, (R and S)-N-(2,2,2-trifluoro-1-(pyridin-3-yl)ethyl)-8-(2-(2,2,2-trifluoroethoxy)phenyl)imidazo[1,2-a]pyridine-2-carboxamide] was 8.26. The value for `O=C(c1cn2cccc(-c3ccccc3OCC(F)(F)F)c2n1)N1CCOC2(CCOC2)C1` (racemic) [Compound 50, (R and S)-(2,6-dioxa-9-azaspiro[4.5]decan-9-yl)(8-(2-(2,2,2-trifluoroethoxy)phenyl)imidazo[1,2-a]pyridin-2-yl)methanone] was 7.68; that for `O=C(N[C@@H]1CNCC[C@H]1F)c1cn2cccc(-c3ccccc3OCC(F)(F)F)c2n1` (relative stereo) [Compound 16, N-(trans-4-fluoropiperidin-3-yl)-8-(2-(2,2,2-trifluoroethoxy)phenyl)imidazo[1,2-a]pyridine-2-carboxamide] was 9.08.

As for `O=C(N[C@H]1CC[C@H](O)C1)c1cn2cccc(-c3ccccc3OCC(F)(F)F)c2n1` (relative stereo) [Compound 19, N-(trans-3-hydroxycyclopentyl)-8-(2-(2,2,2-trifluoroethoxy)phenyl)imidazo[1,2-a]pyridine-2-carboxamide], the pEC50 was 7.64. The value for `O=C(N[C@@H]1CCC[C@H](CO)C1)c1cn2cccc(-c3ccccc3OCC(F)(F)F)c2n1` (relative stereo) [Compound 31, N-(cis-3-(hydroxymethyl)cyclohexyl)-8-(2-(2,2,2-trifluoroethoxy)phenyl)imidazo[1,2-a]pyridine-2-carboxamide] was 9.64; that for `O=C(NC1CCCOC1)c1cn2cccc(-c3ccccc3OCC(F)(F)F)c2n1` (single isomer, unassigned) [Compound 2, (R or S)-N-(tetrahydro-2H-pyran-3-yl)-8-(2-(2,2,2-trifluoroethoxy)phenyl)imidazo[1,2-a]pyridine-2-carboxamide] was 8.21.

`CC(CO)(NC(=O)c1cn2cccc(-c3ccccc3OCC(F)(F)F)c2n1)C(F)(F)F` (single isomer, unassigned) [Compound 9, (R or S)-N-(1,1,1-trifluoro-3-hydroxy-2-methylpropan-2-yl)-8-(2-(2,2,2-trifluoroethoxy)phenyl)imidazo[1,2-a]pyridine-2-carboxamide] gave a pEC50 of 8.64. In the case of `CC(CO)(NC(=O)c1cn2cccc(-c3ccccc3OCC(F)(F)F)c2n1)C(F)(F)F` (single isomer, unassigned) [Compound 10, (R or S)-N-(1,1,1-trifluoro-3-hydroxy-2-methylpropan-2-yl)-8-(2-(2,2,2-trifluoroethoxy)phenyl)imidazo[1,2-a]pyridine-2-carboxamide] it was 8.14; in that of `CC(O)c1cn2cc(C(F)(F)F)cc(-c3ccccc3OCC(F)(F)F)c2n1` (single isomer, unassigned) [Compound 63, (R or S) 1-(8-(2-(2,2,2-trifluoroethoxy)phenyl)-6-(trifluoromethyl)imidazo[1,2-a]pyridin-2-yl)ethan-1-ol], 8.24. In the case of `CC(C)(CO)NC(=O)c1cn2cccc(-c3ccccc3OCC(F)(F)F)c2n1` [Compound 1, N-(1-hydroxy-2-methylpropan-2-yl)-8-(2-(2,2,2-trifluoroethoxy)phenyl)imidazo[1,2-a]pyridine-2-carboxamide] it was 8.01; in that of `CC(C)(NC(=O)c1cn2cccc(-c3ccccc3OCC(F)(F)F)c2n1)C(F)(F)F` [Compound 3, N-(1,1,1-trifluoro-2-methylpropan-2-yl)-8-(2-(2,2,2-trifluoroethoxy)phenyl)imidazo[1,2-a]pyridine-2-carboxamide], 8.51.

In turn, `C[C@@H](NC(=O)c1cn2cccc(-c3ccccc3OCC(F)(F)F)c2n1)C(F)(F)F` [Compound 4, (R)-8-(2-(2,2,2-trifluoroethoxy)phenyl)-N-(1,1,1-trifluoropropan-2-yl)imidazo[1,2-a]pyridine-2-carboxamide] showed a negative logarithm of the EC50 (pEC50) of 7.59. Consider `O=C(N[C@H]1CCOC1)c1cn2cc(Cl)cc(-c3ccccc3OCC(F)(F)F)c2n1` [Compound 5, (S)-6-chloro-N-(tetrahydrofuran-3-yl)-8-(2-(2,2,2-trifluoroethoxy)phenyl)imidazo[1,2-a]pyridine-2-carboxamide], for which the negative-log EC50 (pEC50) was 9.04. `CC(C)(C#N)CNC(=O)c1cn2cc(Cl)cc(-c3ccccc3OCC(F)(F)F)c2n1` [Compound 8, 6-chloro-N-(2-cyano-2-methylpropyl)-8-(2-(2,2,2-trifluoroethoxy)phenyl)imidazo[1,2-a]pyridine-2-carboxamide] showed a negative logarithm of the EC50 (pEC50) of 8.35. With `COCC(C)(C)NC(=O)c1cn2cccc(-c3ccccc3OCC(F)(F)F)c2n1` [Compound 11, N-(1-methoxy-2-methylpropan-2-yl)-8-(2-(2,2,2-trifluoroethoxy)phenyl)imidazo[1,2-a]pyridine-2-carboxamide], the pEC50 was 7.42. In the case of `O=C(c1cn2cccc(-c3ccccc3OCC(F)(F)F)c2n1)N1Cc2cccnc2C1` [Compound 12, (5,7-dihydro-6H-pyrrolo[3,4-b]pyridin-6-yl)(8-(2-(2,2,2-trifluoroethoxy)phenyl)imidazo[1,2-a]pyridin-2-yl)methanone] it was 7.44; in that of `CC(C)(C)NC(=O)c1cn2cc(F)cc(-c3ccccc3OCC(F)(F)F)c2n1` [Compound 13, N-(tert-butyl)-6-fluoro-8-(2-(2,2,2-trifluoroethoxy)phenyl)imidazo[1,2-a]pyridine-2-carboxamide], 8.24; in that of `O=C(Nc1cccnc1)c1cn2cc(C(F)(F)F)cc(-c3ccccc3OCC(F)(F)F)c2n1` [Compound 15, N-(pyridin-3-yl)-8-(2-(2,2,2-trifluoroethoxy)phenyl)-6-(trifluoromethyl)imidazo[1,2-a]pyridine-2-carboxamide], 10.54.
